# Reference: PubChem BioAssay AID330 (DTP/NCI, 2004)
# Toxic doses and inconclusive results are not listed.
# System: P388 leukemia ip, CD2F1 mice, survival T/C
# Assay: NCI In Vivo Anticancer Drug Screen. Data for tumor model P388 Leukemia (intraperitoneal) in CD2F1 (CDF1) mice
# Conditions: endpoint: median survival time, higher = longer survival
# How it was run: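 Mice carrying the transplanted tumor received test compound or vehicle. Survival was recorded in each group, and the value is the treated-group measurement divided by that of the vehicle-treated control group.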
# [1] = dose: 50.0 mg/kg/injection, schedule: Q01DX009 (ip), vehicle: Klucel (hydroxypropylcellulose) (HPC)
# [2] = dose: 100.0 mg/kg/injection, schedule: Q01DX009 (ip), vehicle: Klucel (hydroxypropylcellulose) (HPC)
# [3] = dose: 200.0 mg/kg/injection, schedule: Q01DX009 (ip), vehicle: Klucel (hydroxypropylcellulose) (HPC)
# [4] = dose: 60.0 mg/kg/injection, schedule: Q01DX005 (ip), vehicle: Klucel (hydroxypropylcellulose) (HPC)
# [5] = dose: 120.0 mg/kg/injection, schedule: Q01DX005 (ip), vehicle: Klucel (hydroxypropylcellulose) (HPC)
# [6] = dose: 240.0 mg/kg/injection, schedule: Q01DX005 (ip), vehicle: Klucel (hydroxypropylcellulose) (HPC)
# [7] = dose: 50.0 mg/kg/injection, schedule: Q01DX009 (ip), vehicle: saline with Tween-80
# [8] = dose: 100.0 mg/kg/injection, schedule: Q01DX009 (ip), vehicle: saline with Tween-80
# [9] = dose: 200.0 mg/kg/injection, schedule: Q01DX009 (ip), vehicle: saline with Tween-80
# [10] = dose: 25.0 mg/kg/injection, schedule: Q04DX003 (ip), vehicle: saline with Tween-80
# [11] = dose: 100.0 mg/kg/injection, schedule: Q04DX003 (ip), vehicle: saline with Tween-80
# [12] = dose: 400.0 mg/kg/injection, schedule: Q04DX003 (ip), vehicle: saline with Tween-80
# [13] = dose: 60.0 mg/kg/injection, schedule: Q01DX005 (ip), vehicle: saline with Tween-80
# [14] = dose: 120.0 mg/kg/injection, schedule: Q01DX005 (ip), vehicle: saline with Tween-80
# [15] = dose: 240.0 mg/kg/injection, schedule: Q01DX005 (ip), vehicle: saline with Tween-80
# [16] = dose: 50.0 mg/kg/injection, schedule: Q01DX009 (ip), vehicle: saline
# [17] = dose: 100.0 mg/kg/injection, schedule: Q01DX009 (ip), vehicle: saline
# [18] = dose: 200.0 mg/kg/injection, schedule: Q01DX009 (ip), vehicle: saline
# [19] = dose: 200.0 mg/kg/injection, schedule: Q04DX003 (ip), vehicle: saline with Tween-80
# [20] = dose: 50.0 mg/kg/injection, schedule: Q01DX005 (ip), vehicle: Klucel (hydroxypropylcellulose) (HPC)
# [21] = dose: 100.0 mg/kg/injection, schedule: Q01DX005 (ip), vehicle: Klucel (hydroxypropylcellulose) (HPC)
# [22] = dose: 200.0 mg/kg/injection, schedule: Q01DX005 (ip), vehicle: Klucel (hydroxypropylcellulose) (HPC)
smiles,measurement,setting,value
C=C1C(=O)OC(C)(C)C1c1ccc(Cl)c(Cl)c1 (configuration not stated),T/C,[1],93 % of control
same,T/C,[2],92 % of control
same,T/C,[3],97 % of control
CNc1ccccc1Sc1cnc(N)nc1C,T/C,[4],94 % of control
same,T/C,[5],91 % of control
same,T/C,[6],90 % of control
CC(C)(C)c1cc(/C2=c3\cc/c([n-]3)=C(\c3cc(C(C)(C)C)c(O)c(C(C)(C)C)c3)c3ccc([n-]3)/C(c3cc(C(C)(C)C)c(O)c(C(C)(C)C)c3)=c3/cc/c([n-]3)=C(\c3cc(C(C)(C)C)c(O)c(C(C)(C)C)c3)c3ccc2[n-]3)cc(C(C)(C)C)c1O.[Zn],T/C,"dose: 100.0 mg/kg/injection, schedule: Q04DX002 (ip), vehicle: saline with Tween-80",97 % of control
same,T/C,"dose: 200.0 mg/kg/injection, schedule: Q04DX002 (ip), vehicle: saline with Tween-80",88 % of control
same,T/C,"dose: 400.0 mg/kg/injection, schedule: Q04DX002 (ip), vehicle: saline with Tween-80",90 % of control
CC(=O)Nc1cn(C)cc1[N+](=O)[O-],T/C,[7],102 % of control
same,T/C,[8],103 % of control
same,T/C,[9],104 % of control
Cc1ccc2cc3c(ccc4ccccc43)c3c2c1CC3,T/C,[10],113 % of control
same,T/C,"dose: 33.0 mg/kg/injection, schedule: Q01DX009 (ip), vehicle: saline with Tween-80",121 % of control
same,T/C,[11],150 % of control
same,T/C,"dose: 300.0 mg/kg/injection, schedule: Q04DX003 (ip), vehicle: saline with Tween-80",152 % of control
same,T/C,[12],172 % of control
CC(c1ccccc1)c1cc(C(C)(C)C)c(O)c(C(C)(C)C)c1 (configuration not stated),T/C,"dose: 50.0 mg/kg/injection, schedule: Q01DX005 (ip), vehicle: distilled water + alcohol",100 % of control
same,T/C,"dose: 100.0 mg/kg/injection, schedule: Q01DX005 (ip), vehicle: distilled water + alcohol",99 % of control
same,T/C,"dose: 200.0 mg/kg/injection, schedule: Q01DX005 (ip), vehicle: distilled water + alcohol",93 % of control
CC(=O)OC1C=CCC2C(=O)c3cccc(O)c3C(=O)C12 (configuration not stated),T/C,[4],107 % of control
same,T/C,[5],105 % of control
same,T/C,[6],97 % of control
S=C(SSC(=S)N(Cc1ccccc1)Cc1ccccc1)N(Cc1ccccc1)Cc1ccccc1,T/C,[13],96 % of control
same,T/C,[14],103 % of control
same,T/C,[15],96 % of control
COc1cc(/C=C/C(=O)C(CN(C)C)CN(C)C)cc(OC)c1OC,T/C,"dose: 6.25 mg/kg/injection, schedule: Q01DX005 (ip), vehicle: Klucel (hydroxypropylcellulose) (HPC)",100 % of control
same,T/C,"dose: 12.5 mg/kg/injection, schedule: Q01DX005 (ip), vehicle: Klucel (hydroxypropylcellulose) (HPC)",103 % of control
NC(=O)c1nccnc1Cl,T/C,[1],101 % of control
same,T/C,[2],100 % of control
same,T/C,[3],114 % of control
CCN(CC)c1ccc(/C=C2\CCc3ccccc3C2=O)cc1,T/C,[1],108 % of control
same,T/C,[2],111 % of control
same,T/C,[3],106 % of control
CCCCCC(=O)C(CCCC)(c1nc2n(c1O)C(=N)N=N2)c1nc2n(c1O)C(=N)N=N2 (configuration not stated),T/C,"dose: 50.0 mg/kg/injection, schedule: Q01DX005 (ip), vehicle: saline with Tween-80",107 % of control
same,T/C,"dose: 100.0 mg/kg/injection, schedule: Q01DX005 (ip), vehicle: saline with Tween-80",93 % of control
O=C(O)CS(=O)(=O)CCCCS(=O)(=O)CC(=O)O,T/C,[16],104 % of control
same,T/C,[17],103 % of control
same,T/C,[18],100 % of control
CCCCCCCCCCCC1(O)OC(=O)C(C)=C1C (configuration not stated),T/C,"dose: 12.5 mg/kg/injection, schedule: Q04DX003 (ip), vehicle: saline with Tween-80",101 % of control
same,T/C,[10],108 % of control
same,T/C,"dose: 50.0 mg/kg/injection, schedule: Q04DX003 (ip), vehicle: saline with Tween-80",103 % of control
CC1=CC2C(O)(CC3(CO)OC3C3C4C(C)(C)C4(OC(=O)c4ccccc4)C(OC(=O)c4ccccc4)C(C)C32O)C1=O (configuration not stated),T/C,"dose: 50.0 micrograms/kg/injection, schedule: Q01DX005 (ip), vehicle: saline + alcohol",94 % of control
same,T/C,"dose: 100.0 micrograms/kg/injection, schedule: Q01DX005 (ip), vehicle: saline + alcohol",97 % of control
same,T/C,"dose: 200.0 micrograms/kg/injection, schedule: Q01DX005 (ip), vehicle: saline + alcohol",99 % of control
same,T/C,"dose: 400.0 micrograms/kg/injection, schedule: Q01DX005 (ip), vehicle: saline + alcohol",94 % of control
same,T/C,"dose: 800.0 micrograms/kg/injection, schedule: Q01DX005 (ip), vehicle: saline + alcohol",105 % of control
COc1ccc2oc3c(ccc[n+]3C)c(=O)c2c1,T/C,"dose: 30.0 mg/kg/injection, schedule: Q01DX005 (ip), vehicle: saline with Tween-80",107 % of control
same,T/C,[13],120 % of control
same,T/C,[14],107 % of control
CCCc1nc2ccccc2c(=O)n1/N=C/c1ccsc1,T/C,[11],100 % of control
same,T/C,[19],90 % of control
same,T/C,[12],90 % of control
COC(=O)c1cc(-c2ccc(OC)cc2)c2c(=O)n(-c3ccccc3)[nH]c2n1,T/C,[13],101 % of control
same,T/C,[14],99 % of control
same,T/C,[15],94 % of control
O=C(c1ccc(Cl)cc1)c1nnc(Cl)s1,T/C,[7],110 % of control
same,T/C,[8],118 % of control
same,T/C,[9],101 % of control
CS(=O)(=O)OC1CC(Cl)CO1 (configuration not stated),T/C,"dose: 100.0 mg/kg/injection, schedule: Q04DX003 (ip), vehicle: Klucel (hydroxypropylcellulose) (HPC)",100 % of control
same,T/C,"dose: 200.0 mg/kg/injection, schedule: Q04DX003 (ip), vehicle: Klucel (hydroxypropylcellulose) (HPC)",100 % of control
same,T/C,"dose: 400.0 mg/kg/injection, schedule: Q04DX003 (ip), vehicle: Klucel (hydroxypropylcellulose) (HPC)",103 % of control
CC1(C)OC(=O)C(Cc2c[nH]c3ccccc23)C(=O)O1,T/C,[7],108 % of control
same,T/C,[8],100 % of control
same,T/C,[9],94 % of control
O=S(=O)(NC(Cc1nc2ccccc2[nH]1)c1nc2ccccc2[nH]1)c1ccccc1 (configuration not stated),T/C,[7],95 % of control
same,T/C,[8],89 % of control
same,T/C,[9],93 % of control
CP1(=O)CC2=C(CC2)C1,T/C,[16],108 % of control
same,T/C,[17],103 % of control
same,T/C,[18],95 % of control
Cc1cc(Cl)cc(C(=O)c2ccccc2)c1OC(N)=O,T/C,[20],101 % of control
same,T/C,[21],103 % of control
same,T/C,[22],106 % of control
CN(C)c1ccc(/C=C2\C=Cc3ccccc32)cc1,T/C,[11],109 % of control
same,T/C,[19],90 % of control
same,T/C,[12],90 % of control
O=C(CCl)NCc1ccccc1,T/C,"dose: 100.0 mg/kg/injection, schedule: Q04DX003 (ip), vehicle: saline",98 % of control
same,T/C,"dose: 200.0 mg/kg/injection, schedule: Q04DX003 (ip), vehicle: saline",100 % of control
CNC(=O)c1ccccc1NC(=O)c1ccccc1N=[N+]=[N-],T/C,[20],100 % of control
same,T/C,[21],100 % of control
same,T/C,[22],98 % of control
Cc1cc(C)c2c(c1)CC(C)(C)C(=O)OC2=O,T/C,[13],107 % of control
same,T/C,[14],101 % of control
COC(=O)C(CCSC)NC(=O)C(Cc1c[nH]c2ccccc12)NC(=O)OC(C)(C)C (configuration not stated),T/C,[1],86 % of control
same,T/C,[2],97 % of control
same,T/C,[3],106 % of control
CCOc1ccc(N2C(=O)CC(Sc3ccccc3N)C2=O)cc1 (configuration not stated),T/C,[8],110 % of control
same,T/C,[9],115 % of control
same,T/C,"dose: 400.0 mg/kg/injection, schedule: Q01DX009 (ip), vehicle: saline with Tween-80",120 % of control
CC(=O)OC1/C=C\CC/C=C\C1 (configuration not stated),T/C,[13],99 % of control
same,T/C,[14],102 % of control
same,T/C,[15],103 % of control
CC1=C(C(=O)CC(=O)C(=O)Nc2ccc(C)cc2)Sc2ccccc2N1,T/C,[13],105 % of control
same,T/C,[14],108 % of control
same,T/C,[15],106 % of control
CCN1C(=O)CC(SC2CC(=O)N(CC)C2=O)C1=O (configuration not stated),T/C,[20],99 % of control
same,T/C,[21],95 % of control
same,T/C,[22],99 % of control
O=C(Nc1nc2ccc([N+](=O)[O-])cc2s1)C(F)(F)C(F)(F)F,T/C,"dose: 6.25 mg/kg/injection, schedule: Q01DX009 (ip), vehicle: saline",112 % of control
same,T/C,"dose: 12.5 mg/kg/injection, schedule: Q01DX009 (ip), vehicle: saline",112 % of control
same,T/C,"dose: 25.0 mg/kg/injection, schedule: Q01DX009 (ip), vehicle: saline",106 % of control
